Experimental data taken from PMC2248166, “Quantitative peptide binding motifs for 19 human and mouse MHC class I molecules derived using positional scanning combinatorial peptide libraries” (Immunome Research, 2008).

Assays:
[1] = biological target: HLA A*3001 (Homo sapiens, UniProt P04439, D140H/D185E/E176W/F33S/G80R/H175R/K168Q/R138E/R41S); test: biochemical; format: binding
[2] = biological target: HLA A*3201 (Homo sapiens, UniProt P04439, A270S/D101S/D185E/E176V/E277Q/F133L/G103R/G107R/G231S/H175R/I121M/I218V/I322F/K168Q/L105A/L300P/L318F/M331R/P208A/P217A/Q94H/R106L/R138Q/S129P/T104I/T323A/T345S/V100E/V321M/V358M); test: biochemical; format: binding
[3] = biological target: HLA A*6802 (Homo sapiens, UniProt P04439, A269V/D140Y/D185E/E176V/E277Q/E87N/F33Y/G231S/I121R/I166T/I218V/L180W/L300P/L318F/N151K/P208A/P217A/Q86R/R138H/R169H/S129P/T345S/V36M); format: binding
[4] = biological target: HLA B*0702 (Homo sapiens, UniProt P01889); format: binding; details: positional scanning combinatorial 9-mer library; normalized to 1.0 for the best residue at each position
[5] = biological target: HLA B*0801 (Homo sapiens, UniProt P01889, A93T/A95T/D138N/E176V/E187T/K202T/Q94N/R180D/S35A/V36M/Y33D/Y91F); test: biochemical; format: binding
[6] = biological target: HLA B*1501 (Homo sapiens, UniProt P01889, A329T/A93T/A95T/C349S/D201E/D98Y/E187L/E204Q/E69M/E70A/K202T/N87E/Q94N/R155S/R180W/S121R/S35A/S48A/V306I/V36M/Y140S/Y91S); test: biochemical; format: binding
[7] = biological target: HLA B*1503 (Homo sapiens, UniProt P01889, A329T/A93T/A95T/C349S/D201E/D98Y/E187L/E204Q/K202T/N87E/Q94N/R155S/R180L/S121R/S35A/V306I/V36M/Y140S/Y91S); test: biochemical; format: binding
[8] = biological target: HLA B*2705 (Homo sapiens, UniProt P01889, D138H/D201E/E176V/E204Q/G107R/H137Y/K202T/N104T/N87E/Q56L/Q94K/R106L/R155S/R180L/S101D/S121N/S48T/Y140D/Y33H/Y91C); format: binding; details: positional scanning combinatorial 9-mer library; normalized to 1.0 for the best residue at each position
[9] = biological target: HLA B*3501 (Homo sapiens, UniProt P01889, A329T/A93T/A95T/C349S/D201E/D98Y/E176V/E187L/E204Q/E69T/I218V/K202T/L119I/Q94N/R155S/R180L/S121R/S35A/S48A/T118I/V127L/V306I/V36M/Y140S/Y91F); format: binding
[10] = biological target: HLA B*5101 (Homo sapiens, UniProt P01889, A329T/A93T/A95T/C349S/D138N/D201E/D98Y/E187L/E204Q/E69T/G107R/I218V/K202T/L105A/L119W/N104I/Q94N/R106L/R155S/R180L/S101N/S121T/S35A/S48A/V306I/V36M/Y195H/Y91F); format: binding
[11] = biological target: HLA B*5301 (Homo sapiens, UniProt P01889, A329T/A93T/A95T/C349S/D201E/D98Y/E176V/E187L/E204Q/E69T/G107R/I218V/K202T/L105A/L119I/N104I/Q94N/R106L/R155S/R180L/S101N/S121R/S35A/S48A/T118I/V127L/V306I/V36M/Y140S/Y91F); format: binding
[12] = biological target: HLA B*5401 (Homo sapiens, UniProt P01889, A329T/C349S/D138N/D201E/E176V/E187T/E204Q/E69G/I76V/K202T/L119W/R155S/R180L/S121T/S35A/S48A/V127L/V306I/V36M/Y140L); format: binding
[13] = biological target: HLA B*5801 (Homo sapiens, UniProt P01889, A329T/C349S/D201E/D98Y/E176V/E187L/E204Q/E69T/G107R/I218V/I90N/K202T/L105A/L119I/N104I/N87E/Q89R/Q94S/R106L/R155S/R180L/R86G/S101N/S121R/S35A/S48A/T118I/V127L/V306I/V36M/Y140S/Y91M); format: binding
[14] = biological target: HLA B*5802 (Homo sapiens, UniProt P01889, A329T/C349S/D201E/D98Y/E176V/E187L/E204Q/E69T/G107R/I218V/I90N/K202T/L105A/N104I/N87E/Q89R/Q94S/R106L/R155S/R180L/R86G/S101N/S121W/S35A/S48A/V127L/V306I/V36M/Y140S/Y91M); format: binding
[15] = biological target: H-2 D^b (Mus musculus, UniProt P01899); format: binding
[16] = biological target: H-2 D^d (Mus musculus, UniProt P01900); format: binding
[17] = biological target: H-2 K^k (Mus musculus, UniProt P04223); format: binding
[18] = biological target: HLA A*0201 (Homo sapiens, UniProt P04439, D140Y/D185E/D98H/E176V/E277Q/G131W/G231S/I119V/I121R/I166T/I218V/L300P/L318F/N151K/N90K/P208A/P217A/Q86G/Q94H/R138H/R169H/T345S); details: positional scanning combinatorial 9-mer library; normalized to 1.0 for the best residue at each position

H-2 D^d, sequence (P01900 whole entry, looked up): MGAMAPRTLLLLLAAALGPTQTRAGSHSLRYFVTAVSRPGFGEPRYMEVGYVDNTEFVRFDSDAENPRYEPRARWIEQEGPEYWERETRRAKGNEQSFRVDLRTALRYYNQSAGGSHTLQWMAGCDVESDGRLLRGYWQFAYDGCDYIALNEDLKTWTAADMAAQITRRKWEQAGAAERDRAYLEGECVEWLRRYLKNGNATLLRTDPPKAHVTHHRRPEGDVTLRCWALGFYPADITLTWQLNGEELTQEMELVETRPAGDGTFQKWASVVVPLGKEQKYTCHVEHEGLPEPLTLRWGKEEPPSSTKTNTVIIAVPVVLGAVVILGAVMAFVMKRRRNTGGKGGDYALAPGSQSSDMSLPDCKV
H-2 D^b, sequence (P01887 21-119): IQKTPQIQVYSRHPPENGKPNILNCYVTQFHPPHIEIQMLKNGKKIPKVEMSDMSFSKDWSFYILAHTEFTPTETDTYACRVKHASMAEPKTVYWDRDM
H-2 D^b, sequence (P01899 25-362): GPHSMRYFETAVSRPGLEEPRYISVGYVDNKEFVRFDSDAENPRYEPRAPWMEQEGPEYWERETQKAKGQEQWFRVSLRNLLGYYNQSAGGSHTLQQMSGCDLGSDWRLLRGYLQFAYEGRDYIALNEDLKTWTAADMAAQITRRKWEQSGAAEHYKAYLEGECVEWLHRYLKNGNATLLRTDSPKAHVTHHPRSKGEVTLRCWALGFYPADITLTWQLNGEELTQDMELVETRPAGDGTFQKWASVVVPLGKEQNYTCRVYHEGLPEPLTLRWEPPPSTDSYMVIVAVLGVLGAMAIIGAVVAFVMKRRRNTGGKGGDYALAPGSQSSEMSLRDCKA
H-2 K^k, sequence (P01887 21-119): as the sequence (P01887 21-119) above
H-2 K^k, sequence (P04223 22-369): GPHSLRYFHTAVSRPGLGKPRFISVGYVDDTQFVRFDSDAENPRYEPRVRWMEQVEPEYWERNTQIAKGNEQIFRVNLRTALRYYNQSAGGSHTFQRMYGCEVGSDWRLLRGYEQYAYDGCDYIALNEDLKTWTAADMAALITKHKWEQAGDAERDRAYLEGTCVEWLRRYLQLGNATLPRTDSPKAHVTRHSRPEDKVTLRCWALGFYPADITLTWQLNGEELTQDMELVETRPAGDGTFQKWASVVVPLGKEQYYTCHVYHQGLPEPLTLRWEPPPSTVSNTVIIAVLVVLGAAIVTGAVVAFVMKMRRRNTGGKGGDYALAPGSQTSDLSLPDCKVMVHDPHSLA

Row | Sequence | Normalized average relative binding affinity (ARB), HLA A*3001 [1] | Normalized average relative binding affinity (ARB), HLA A*3201 [2] | Normalized average relative binding affinity (ARB), HLA A*6802 [3] | Normalized average relative binding affinity (ARB), HLA B*0702 [4] | Normalized average relative binding affinity (ARB), HLA B*0801 [5] | Normalized average relative binding affinity (ARB), HLA B*1501 [6] | Normalized average relative binding affinity (ARB), HLA B*1503 [7] | Normalized average relative binding affinity (ARB), HLA B*2705 [8] | Normalized average relative binding affinity (ARB), HLA B*3501 [9] | Normalized average relative binding affinity (ARB), HLA B*5101 [10] | Normalized average relative binding affinity (ARB), HLA B*5301 [11] | Normalized average relative binding affinity (ARB), HLA B*5401 [12] | Normalized average relative binding affinity (ARB), HLA B*5801 [13] | Normalized average relative binding affinity (ARB), HLA B*5802 [14] | Normalized average relative binding affinity (ARB), H-2 Db [15] | Normalized average relative binding affinity (ARB), H-2 Dd [16] | Normalized average relative binding affinity (ARB), H-2 Kk [17] | Normalized average relative binding affinity (ARB), HLA A*0201 [18]
1 | XXAXXXXXX [3064.0041] | 0.0077 | 0.24 | 0.0051 | 0.0097 | 0.12 | 0.23 | 0.29 | 0.21 | 0.19 | 0.47 | 0.0065 | 0.00077 | 0.32 | 0.047 | 0.022 | 0.0028 | 0.0061 | 0.43
2 | XQXXXXXXX [3064.0034] | 0.33 | 0.32 | 0.0081 | 0.011 | 0.13 | 1.0 | 1.0 | 0.016 | 0.039 | 0.11 | 0.047 | 0.0034 | 0.024 | 0.21 | 1.0 | 0.015 | 0.053 | 0.14
3 | XXCXXXXXX [3064.0042] | 0.0048 | 0.32 | 0.071 | 0.047 | 0.020 | 0.35 | 0.048 | 0.14 | 0.074 | 0.24 | 0.0065 | 0.015 | 0.11 | 0.37 | 0.098 | 0.0028 | 0.15 | 0.22
4 | GXXXXXXXX [3064.0006] | 0.11 | 0.14 | 0.022 | 0.15 | 0.088 | 0.43 | 0.063 | 0.60 | 0.030 | 0.028 | 0.0086 | 0.0071 | 0.069 | 0.14 | 0.096 | 0.15 | 0.14 | 0.089
5 | XIXXXXXXX [3064.0028] | 0.18 | 0.35 | 0.15 | 0.033 | 0.24 | 0.42 | 0.026 | 0.0022 | 0.032 | 0.047 | 0.11 | 0.0071 | 0.046 | 0.11 | 0.076 | 0.018 | 0.0026 | 0.057
6 | RXXXXXXXX [3064.0015] | 1.0 | 0.97 | 0.044 | 1.0 | 0.19 | 0.67 | 0.56 | 1.0 | 0.045 | 0.028 | 0.020 | 0.027 | 0.79 | 0.52 | 0.12 | 0.41 | 0.11 | 0.084
